Laboratory results as given in patent US8148391B2 (Cephalon, Inc., priority 2006, dated 2012).
Where two headings read alike, the source gives them in different places.

Key:
[1] = target: T1, baculovirus-expressed ALK (Homo sapiens, UniProt Q9UM73); assay: ALK Kinase Assay (ELISA-type, time-resolved fluorescence); format: biochemical
T1 construct: host or cells: baculovirus expression system
Method in brief: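 Wells were coated with phospholipase C-γ at 10 μg/mL in Tris-buffered saline. Adding 30 ng/ml enzyme started the reaction, which ran at 37° C for 15 minutes before Eu-N1 PT66 antibody detection. Percent inhibition versus log10 concentration gave IC50 by variable-slope fit.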

[2] = target: T2, c-Met (cytoplasmic domain) (Homo sapiens, UniProt P08581); assay: c-Met Kinase Assay (same methods as for ALK, with modifications); format: biochemical
T2 construct: 10 ng/mL c-Met (cytoplasmic domain, Invitrogen Corporation #PV3143); purchased Invitrogen Corporation PV3143
T2 sequence (P08581 956-1390 limits assumed): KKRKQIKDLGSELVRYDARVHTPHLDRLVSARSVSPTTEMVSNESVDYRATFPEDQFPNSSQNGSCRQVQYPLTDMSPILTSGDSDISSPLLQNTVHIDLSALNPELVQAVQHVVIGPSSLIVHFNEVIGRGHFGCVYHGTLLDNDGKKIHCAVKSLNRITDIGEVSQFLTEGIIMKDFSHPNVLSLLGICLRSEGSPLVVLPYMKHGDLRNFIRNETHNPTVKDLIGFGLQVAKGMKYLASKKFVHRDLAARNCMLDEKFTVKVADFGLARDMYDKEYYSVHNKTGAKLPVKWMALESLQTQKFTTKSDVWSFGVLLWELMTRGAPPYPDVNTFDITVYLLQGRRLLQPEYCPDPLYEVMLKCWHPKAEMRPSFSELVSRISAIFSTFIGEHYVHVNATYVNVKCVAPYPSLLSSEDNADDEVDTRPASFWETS
Method in brief: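 IC50 values were fitted by variable-slope sigmoidal regression of percent inhibition against log compound concentration. Phosphorylation was read with Eu-N1 PT66 antibody after a 15 min, 37 °C reaction. The reaction was initiated with 10 ng/mL c-Met cytoplasmic domain on wells coated with 10 μg/mL PLC-γ in TBS.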

[3] = ALK kinase inhibition, 1 μM ATP, read-out: ALK Activity
[4] = c-Met kinase inhibition, 1 μM ATP, read-out: cMet Activity
[5] = ALK kinase inhibition, 1 μM ATP (Km level), read-out: ALK Activity
[6] = c-Met kinase inhibition, 1 μM ATP (Km level), read-out: cMet Activity
[7] = 1 μM ATP (Km level), read-out: ALK Activity (ALK Kinase Inhibition, IC50)
[8] = 1 μM ATP (Km level), read-out: cMet Activity (c-Met Kinase Inhibition, IC50)
[9] = 1 μM ATP (Km level), 30 ng/ml ALK, 37° C., 15 minutes, read-out: ALK Activity (ALK kinase inhibition, IC50 class)
[10] = 1 μM ATP (Km level), 10 ng/mL c-Met, read-out: cMet Activity (c-Met kinase inhibition, IC50 class)

T1 sequence (Q9UM73 19-1620): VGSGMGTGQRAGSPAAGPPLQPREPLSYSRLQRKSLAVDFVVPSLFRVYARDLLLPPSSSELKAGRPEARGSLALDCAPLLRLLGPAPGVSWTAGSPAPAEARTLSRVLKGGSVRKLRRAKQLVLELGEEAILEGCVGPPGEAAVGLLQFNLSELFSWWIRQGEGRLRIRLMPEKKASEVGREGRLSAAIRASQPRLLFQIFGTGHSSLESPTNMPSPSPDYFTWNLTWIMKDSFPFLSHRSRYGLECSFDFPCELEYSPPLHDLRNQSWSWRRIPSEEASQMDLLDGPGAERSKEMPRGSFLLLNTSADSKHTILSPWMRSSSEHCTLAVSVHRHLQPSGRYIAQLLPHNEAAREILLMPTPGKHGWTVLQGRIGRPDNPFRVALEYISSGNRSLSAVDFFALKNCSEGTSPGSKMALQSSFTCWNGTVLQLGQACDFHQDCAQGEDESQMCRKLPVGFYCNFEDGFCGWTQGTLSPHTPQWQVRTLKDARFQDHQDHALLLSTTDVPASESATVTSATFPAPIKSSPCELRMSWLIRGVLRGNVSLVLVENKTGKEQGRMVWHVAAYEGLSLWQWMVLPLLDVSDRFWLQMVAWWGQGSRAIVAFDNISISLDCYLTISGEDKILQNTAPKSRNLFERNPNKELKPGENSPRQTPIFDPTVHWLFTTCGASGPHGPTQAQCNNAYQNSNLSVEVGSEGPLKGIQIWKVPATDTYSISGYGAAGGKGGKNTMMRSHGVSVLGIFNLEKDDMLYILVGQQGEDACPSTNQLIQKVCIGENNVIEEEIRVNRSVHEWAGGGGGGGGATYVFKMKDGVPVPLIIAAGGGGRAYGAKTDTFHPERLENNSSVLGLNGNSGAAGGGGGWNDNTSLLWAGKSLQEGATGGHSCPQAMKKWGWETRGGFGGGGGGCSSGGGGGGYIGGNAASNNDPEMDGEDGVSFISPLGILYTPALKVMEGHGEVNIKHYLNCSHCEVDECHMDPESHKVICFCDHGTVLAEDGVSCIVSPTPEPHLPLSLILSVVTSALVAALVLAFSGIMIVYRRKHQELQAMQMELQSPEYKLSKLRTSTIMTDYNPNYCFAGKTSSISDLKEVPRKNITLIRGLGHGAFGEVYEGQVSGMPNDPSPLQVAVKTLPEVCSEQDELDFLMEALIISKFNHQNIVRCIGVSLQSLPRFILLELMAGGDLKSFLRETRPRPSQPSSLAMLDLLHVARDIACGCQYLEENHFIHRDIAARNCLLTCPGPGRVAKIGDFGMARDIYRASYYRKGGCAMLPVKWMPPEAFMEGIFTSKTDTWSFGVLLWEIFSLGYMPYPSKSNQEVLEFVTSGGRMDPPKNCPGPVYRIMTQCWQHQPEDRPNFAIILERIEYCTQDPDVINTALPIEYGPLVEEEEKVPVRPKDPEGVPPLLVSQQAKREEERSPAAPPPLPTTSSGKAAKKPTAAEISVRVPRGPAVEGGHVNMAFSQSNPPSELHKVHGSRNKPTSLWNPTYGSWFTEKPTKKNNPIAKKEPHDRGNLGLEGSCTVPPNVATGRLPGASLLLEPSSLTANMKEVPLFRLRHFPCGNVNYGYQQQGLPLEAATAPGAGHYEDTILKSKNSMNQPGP

## CNC(=O)c1ccccc1N(C)c1nc(Nc2ccc3c(c2)CCOC(=O)N3C)ncc1F [Example 1765, 2-{[5-Fluoro-2-(5-methyl-6-oxo-5,6,8,9-tetrahydro-7-oxa-5-aza-benzocyclohepten-2-ylamino)-pyrimidin-4-yl]-methyl-amino}-N-methyl-benzamide]
[1]; [3]
  IC50: > 10000 nM
[2]; [4]
  IC50: 1000 to 10000 nM

## CNS(=O)(=O)c1ccccc1Nc1nc(Nc2ccc3c(c2)C2CCC3CN(S(C)(=O)=O)C2)ncc1Cl (stereo not drawn) [Example 286, 2-[5-Chloro-2-(10-methanesulfonyl-10-aza-tricyclo[6.3.2.0*2,7*]trideca-2,4,6-trien-4-ylamino)-pyrimidin-4-ylamino]-N-methyl-benzenesulfonamide]
[1]; [5]
  IC50: < 100 nM
[2]; [6]
  IC50: < 100 nM

## CCN1C(=O)CCCc2cc(Nc3ncc(Cl)c(Nc4ccc(N5CCOCC5)cc4OC)n3)c(OC)cc21 [Example 135, 7-[5-Chloro-4-(2-methoxy-4-morpholin-4-yl-phenylamino)-pyrimidin-2-ylamino]-1-ethyl-8-methoxy-1,3,4,5-tetrahydro-benzo[b]azepin-2-one]
[1]; [5]
  IC50: < 100 nM
[2]; [6]
  IC50: > 10000 nM

## CN1C(=O)OCCc2cc(Nc3ncc(Cl)c(Nc4ccccc4-n4cccn4)n3)ccc21 [Example 1766, 2-[5-Chloro-4-(2-pyrazol-1-yl-phenylamino)-pyrimidin-2-ylamino]-5-methyl-8,9-dihydro-5H-7-oxa-5-aza-benzocyclohepten-6-one]
[1]; [3]
  IC50: < 100 nM
[2]; [4]
  IC50: 100 to 1000 nM

## COc1ccc(Nc2nc(Nc3cc4c(cc3OC)CCN(CC(=O)N(C)C)CC4)ncc2Cl)c(N2CCOCC2)c1 [Example 829, 2-{7-[5-Chloro-4-(4-methoxy-2-morpholin-4-yl-phenylamino)-pyrimidin-2-ylamino]-8-methoxy-1,2,4,5-tetrahydro-benzo[d]azepin-3-yl}-N,N-dimethyl-acetamide]
[1]; [7]
  IC50: < 100 nM
[2]; [8]
  IC50: > 10000 nM

## COCCN1CCc2ccc(Nc3ncc(Cl)c(Nc4c(F)cccc4C(N)=O)n3)cc2CC1 [Example 1257, 2-{5-Chloro-2-[3-(2-methoxy-ethyl)-2,3,4,5-tetrahydro-1H-3-benzazepin-7-ylamino]-pyrimidin-4-ylamino}-3-fluoro-benzamide]
[1]; [9]
  IC50: < 100 nM
[2]; [10]
  IC50: 100 to 1000 nM

## CCN1CCN(CC(=O)OCCOC)C(=O)c2ccc(Nc3ncc(Cl)c(Nc4c(F)cccc4C(=O)NC)n3)cc21 [Example 1458, {8-[5-Chloro-4-(2-fluoro-6-methylcarbamoyl-phenylamino)-pyrimidin-2-ylamino]-1-ethyl-5-oxo-1,2,3,5-tetrahydro-benzo[e][1,4]diazepin-4-yl}-acetic acid 2-methoxy-ethyl ester]
[1]; [3]
  IC50: 100 to 1000 nM
[2]; [4]
  IC50: < 100 nM

## CN1CCN(c2ccc(Nc3nc(Nc4ccc5c(c4)C(C)(C)CCC(=O)N5)ncc3Cl)c(-n3cccn3)c2)CC1 [Example 628, 7-{5-Chloro-4-[4-(4-methyl-piperazin-1-yl)-2-pyrazol-1-yl-phenylamino]-pyrimidin-2-ylamino}-5,5-dimethyl-1,3,4,5-tetrahydro-benzo[b]azepin-2-one]
[1]; [7]
  IC50: < 100 nM
[2]; [8]
  IC50: 1000 to 10000 nM

## CCN([C@@H]1CCCC[C@H]1Nc1nc(Nc2ccc3c(c2)C(C)(C)CCC(=O)N3)ncc1Cl)S(C)(=O)=O [Example 1675, N-{(1R,2R)-2-[5-Chloro-2-(5,5-dimethyl-2-oxo-2,3,4,5-tetrahydro-1H-benzo[b]azepin-7-ylamino)-pyrimidin-4-ylamino]-cyclohexyl}-N-ethyl-methanesulfonamide]
[1]; [3]
  IC50: < 100 nM
[2]; [4]
  IC50: 1000 to 10000 nM

## CNC(=O)c1cccc(Cl)c1Nc1nc(Nc2ccc3c(c2)C(C)(C)NC(=O)CC3)ncc1Cl [Example 1834, 3-Chloro-2-(5-chloro-2-(1,1-dimethyl-3-oxo-2,3,4,5-tetrahydro-1H-benzo[c]azepin-8-ylamino)pyrimidin-4-ylamino)-N-methylbenzamide]
[1]; [3]
  IC50: < 100 nM
[2]; [4]
  IC50: < 100 nM

## CCN1CCc2ccc(Nc3ncc(Cl)c(NCCC(=O)NC)n3)cc2CC1 [Example 211, 3-[5-Chloro-2-(3-ethyl-2,3,4,5-tetrahydro-1H-benzo[d]azepin-7-ylamino)-pyrimidin-4-ylamino]-N-methyl-propionamide]
[1]; [5]
  IC50: 100 to 1000 nM
[2]; [6]
  IC50: 1000 to 10000 nM

## COCCN1CCc2ccc(Nc3ncc(Cl)c(Nc4c(OC)cccc4C(=O)NCCC#N)n3)cc2CC1 [Example 1060, 2-{5-Chloro-2-[3-(2-methoxy-ethyl)-2,3,4,5-tetrahydro-1H-benzo[d]azepin-7-ylamino]-pyrimidin-4-ylamino}-N-(2-cyano-ethyl)-3-methoxy-benzamide]
[1]; [9]
  IC50: 1000 to 10000 nM
[2]; [10]
  IC50: 1000 to 10000 nM

## COc1cc(N2CCOCC2)ccc1Nc1nc(Nc2ccc3c(c2)NCCCC3(C)C)ncc1Cl [Example 1614, 5-Chloro-N*2*-(5,5-dimethyl-2,3,4,5-tetrahydro-1H-benzo[b]azepin-8-yl)-N*4*-(2-methoxy-4-morpholin-4-yl-phenyl)-pyrimidine-2,4-diamine]
[1]; [3]
  IC50: 100 to 1000 nM
[2]; [4]
  IC50: > 10000 nM

## CCN1CCN(CC)c2cc(Nc3ncc(Cl)c(Nc4ccccc4C(=O)NC)n3)ccc2C1 [Example 419, 2-[5-Chloro-2-(1,4-diethyl-2,3,4,5-tetrahydro-1H-benzo[e][1,4]diazepin-8-ylamino)-pyrimidin-4-ylamino]-N-methylbenzamide]
[1]; [5]
  IC50: < 100 nM
[2]; [6]
  IC50: < 100 nM

## CCN1CCc2ccc(Nc3ncc(Cl)c(NC(C)CNS(C)(=O)=O)n3)cc2CC1 (stereo not drawn) [Example 302, N-{2-[5-Chloro-2-(3-ethyl-2,3,4,5-tetrahydro-1H-benzo[d]azepin-7-ylamino)-pyrimidin-4-ylamino]-propyl}-methanesulfonamide]
[1]; [5]
  IC50: < 100 nM
[2]; [6]
  IC50: 1000 to 10000 nM

## COCCn1ccnc1-c1ccccc1Nc1nc(Nc2ccc3c(c2)C(C)(C)CCC(=O)N3)ncc1Cl [Example 980, 7-(5-Chloro-4-{2-[1-(2-methoxy-ethyl)-1H-imidazol-2-yl]-phenylamino}-pyrimidin-2-ylamino)-5,5-dimethyl-1,3,4,5-tetrahydro-benzo[b]azepin-2-one]
[1]; [7]
  IC50: 100 to 1000 nM
[2]; [8]
  IC50: > 10000 nM

## CCN1CC(=O)N(C)c2cc(Nc3ncc(Cl)c(Nc4ccc(OC)cc4-n4cccn4)n3)c(OC)cc2C1 [Example 742, 8-[5-Chloro-4-(4-methoxy-2-pyrazol-1-yl-phenylamino)-pyrimidin-2-ylamino]-4-ethyl-7-methoxy-1-methyl-1,3,4,5-tetrahydro-benzo[e][1,4]diazepin-2-one]
[1]; [7]
  IC50: < 100 nM
[2]; [8]
  IC50: > 10000 nM

## CCN1CCNC(=O)c2ccc(Nc3ncc(Cl)c(Nc4ccccc4C(=O)NC)n3)cc21 [Example 1452, 2-[5-Chloro-2-(1-ethyl-5-oxo-2,3,4,5-tetrahydro-1H-benzo[e][1,4]diazepin-8-ylamino)-pyrimidin-4-ylamino]-N-methyl-benzamide]
[1]; [3]
  IC50: < 100 nM
[2]; [4]
  IC50: < 100 nM

## C#CCNC(=O)c1cccc(F)c1Nc1nc(Nc2ccc3c(c2)OCCCN3C(C)=O)ncc1Cl [Example 1725, 2-[2-(9-Acetyl-6,7,8,9-tetrahydro-5-oxa-9-aza-benzocyclohepten-3-ylamino)-5-chloro-pyrimidin-4-ylamino]-3-fluoro-N-prop-2-ynyl-benzamide]
[1]; [3]
  IC50: < 100 nM
[2]; [4]
  IC50: < 100 nM

## CCNC(=O)c1ccccc1Nc1nc(Nc2cc3c(cc2OC)CN(Cc2ccccc2)CC(=O)N3)ncc1Cl [Example 1653, 2-[2-(4-Benzyl-7-methoxy-2-oxo-2,3,4,5-tetrahydro-1H-benzo[e][1,4]diazepin-8-ylamino)-5-chloro-pyrimidin-4-ylamino]-N-ethyl-benzamide]
[1]; [3]
  IC50: < 100 nM
[2]; [4]
  IC50: 1000 to 10000 nM

## CC(C)S(=O)(=O)c1cccc(F)c1Nc1nc(Nc2ccc3c(c2)-n2ccnc2CCC3)ncc1Cl [Example 1842, 5-Chloro-N*2*-(5,6-dihydro-4H-3,10b-diaza-benzo[e]azulen-9-yl)-N*4*-[2-fluoro-6-(propane-2-sulfonyl)-phenyl]-pyrimidine-2,4-diamine]
[1]; [3]
  IC50: < 100 nM
[2]; [4]
  IC50: < 100 nM

## NC(=O)C1C2C=CC(C2)C1Nc1nc(Nc2cccc3c2OCCCC3)ncc1Cl (stereo not drawn) [Example 861, (2-exo-3-exo)-3-[5-Chloro-2-(2,3,4,5-tetrahydro-benzo[b]oxepin-9-ylamino)-pyrimidin-4-ylamino]-bicyclo[2.2.1]hept-5-ene-2-carboxylic acid amide]
[1]; [7]
  IC50: < 100 nM
[2]; [8]
  IC50: > 10000 nM

## CCCCNC(=O)c1ccccc1Nc1nc(Nc2ccc3c(c2)CCCC(=O)N3)ncc1Cl [Example 1029, N-Butyl-2-[5-chloro-2-(2-oxo-2,3,4,5-tetrahydro-1H-benzo[b]azepin-7-ylamino)-pyrimidin-4-ylamino]-benzamide]
[1]; [9]
  IC50: 100 to 1000 nM
[2]; [10]
  IC50: 1000 to 10000 nM

## CCN1CC(=O)N(CC)c2cc(Nc3ncc(Cl)c(Nc4ccsc4C(=O)NC)n3)ccc2C1 [Example 1856, 3-[5-Chloro-2-(1,4-diethyl-2-oxo-2,3,4,5-tetrahydro-1H-benzo[e][1,4]diazepin-8-ylamino)-pyrimidin-4-ylamino]-thiophene-2-carboxylic acid methylamide]
[1]; [3]
  IC50: < 100 nM
[2]; [4]
  IC50: < 100 nM
